Data as given in PMC5075052, “Modulation of the Substitution Pattern of 5-Aryl-2-Aminoimidazoles Allows Fine-Tuning of Their Antibiofilm Activity Spectrum and Toxicity” (Antimicrobial Agents and Chemotherapy, 2016).
Read-outs that look alike come from different tables or passages of the source.

Columns and labels:
[1] = test system: C. albicans SC5314 + S. epidermidis; assay: Mixed C. albicans-S. epidermidis biofilm, selective plating CFU; type: cell-based, Candida albicans + Staphylococcus epidermidis; settings: 37°C
Description: Overnight cultures of C. albicans SC5314 (YPD) and S. epidermidis (TSB) were diluted in RPMI 1640 medium to OD600s of 0.05 and 0.01, respectively. Equal volumes of the cell suspensions of each organism were mixed before use. One hundred microliters of this mixed cell suspension together with compound was added to the wells of a round-bottom microtiter plate (TPP; Trasadingen, Switzerland) in triplicate. Concentrations of 25 μM (0.0625% DMSO or ethanol) and 100 μM (0.25% DMSO or ethanol) were tested. After 24 h of incubation at 37°C, the biofilms were washed with PBS and fresh medium with or without compounds was added. After a further incubation for 48 h at 37°C, the biofilms were washed with PBS, after which the cells were resuspended in 100 μl of PBS by scraping them off, sonicated (1 min, 45 kHz; USC300-T; VWR, Radnor, PA, USA), and vigorously pipetted up and down. Finally, the biofilm cells were diluted in PBS and plated on YPD agar plates containing 100 mg/liter ampicillin and TSA plates containing 25 mg/liter amphotericin B to determine the number of fungal and bacterial CFU, respectively, after 2 days of incubation at 37°C. The percentage of C. albicans SC5314 and S. epidermidis cells relative to the number of cells after DMSO or ethanol control treatment was determined.

[2] = test system: S. aureus SH1000; assay: Monospecies bacterial biofilm inhibition, static peg assay; type: cell-based, Staphylococcus aureus
Description: (§1) A static peg assay, described previously ([27], [74]), was used for bacterial biofilm formation. The Calgary biofilm device consists of a platform carrying 96 polystyrene pegs (Nunc no. 445497) that fits as a microtiter plate lid, with 1 peg hanging into each microtiter plate well (Nunc no. 269789). Twofold serial dilutions of the compounds (dissolved in 100% dimethyl sulfoxide [DMSO] or ethanol) in 100 μl liquid broth (TSB diluted 1/20) per well were prepared in the microtiter plate in duplicate or triplicate with a maximum concentration of 1,600 μM and a minimum concentration of 0.8 μM. Subsequently, an overnight culture of S. Typhimurium ATCC 14028, P. aeruginosa PA14, E. coli TG1, S. epidermidis, S. aureus SH1000, or S. aureus ATCC 6538 (all grown in LB) was diluted 1:100 into TSB diluted 1/20 (or TSB for S. epidermidis, S. aureus SH1000, and S. aureus ATCC 6538), whereas overnight cultures of S. liquefaciens MG44 and B. cepacia LMG1222T were diluted 1:50 into TSB diluted 1/20. P. gingivalis ATCC 33277 cultures were diluted in TSB diluted 1/20 to have a final concentration of 1 × 10^8 cells/ml. Next, 100 μl was added to each well of the microtiter plate, resulting in a total volume of 200 μl medium per well (final concentration range of compounds, 800 μM [2% DMSO or ethanol] to 0.4 μM [0.001% DMSO or ethanol]). In the next step, the pegged lid was placed on the microtiter plate and the plate was incubated for 24 h or 48 h at 25°C or 37°C without shaking. At 37°C, the plates were placed in a sealed container with wet towels on the bottom to prevent evaporation of the growth medium. Biofilms of P. gingivalis ATCC 33277 were grown anaerobically at 37°C for 72 h. During this incubation period, biofilms were formed on the surface of the pegs. After incubation, the optical density at 600 nm (OD600) for the planktonic cells in the microtiter plate was measured using a Synergy MX multimode reader (BioTek, Winooski, VT). This gives a first indication of the effect of the compounds on planktonic growth. For quantification of biofilm formation, the pegs were washed once in 200 μl PBS. The remaining attached bacteria were stained for 30 min with 200 μl 0.1% (wt/vol) crystal violet in an isopropanol-methanol-PBS solution (1:1:18, vol/vol). Excess stain was rinsed off by placing the pegs in a 96-well plate filled with 200 μl distilled water per well. After air drying of the pegs (30 min), the dye bound to the adherent biofilm was extracted with 30% glacial acetic acid (200 μl per well of a 96-well plate). The optical density at 570 nm (OD570) of each well was measured using a Synergy MX multimode reader (BioTek, Winooski, VT). The concentration of each compound needed to inhibit biofilm formation by 50% (BIC50) and the concentration of each compound needed to inhibit planktonic growth by 50% (IC50) were determined from the concentration gradient by using nonlinear curve fitting (GraphPad Prism software, version 5; GraphPad Software, Inc., La Jolla, CA). In the same assay, the effect on planktonic growth was evaluated. The activity was considered biofilm specific if the BIC50 was at least two times lower than the IC50. Data represent the means from at least 3 technical repeats with the corresponding 95% confidence intervals (provided in the supplemental material).

[3] = test system: S. epidermidis; assay: as above; type: cell-based, Staphylococcus epidermidis; settings: Staphylococcus epidermidis, 37°C
Description: as §1

[4] = test system: B. cepacia LMG1222T; assay: as above; type: cell-based, Burkholderia cepacia; settings: Burkholderia cepacia, 25°C
Description: as §1

[5] = test system: P. gingivalis ATCC 33277; assay: Monospecies bacterial biofilm inhibition, static peg assay (anaerobic, 72 h); type: cell-based; settings: Porphyromonas gingivalis, ATCC33277, P. gingivalis ATCC 33277, 37°C
Description: as §1

[6] = test system: S. liquefaciens MG44; assay: Monospecies bacterial biofilm inhibition, static peg assay; type: cell-based, Serratia liquefaciens; settings: Serratia liquefaciens
Description: as §1

[7] = 25 μM compound, read-out: % CFU survival, C. albicans
[8] = 100 μM compound, read-out: % CFU survival, C. albicans
[9] = 25 μM compound, read-out: % CFU survival, S. epidermidis
[10] = 100 μM compound, read-out: % CFU survival, S. epidermidis
[11] = Staphylococcus aureus, SH1000, S. aureus SH1000, 37°C, read-out: BIC50
[12] = Staphylococcus aureus, SH1000, S. aureus SH1000, 37°C, read-out: IC50 (planktonic growth)
[13] = read-out: IC50 (planktonic growth)
[14] = S. liquefaciens MG44, 25°C, read-out: BIC50
[15] = S. liquefaciens MG44, 25°C, read-out: IC50 (planktonic growth)

SMILES | activity at 25 µM [1, 7] [%] | activity at 100 µM [1, 8] [%] | activity at 25 µM [1, 9] [%] | activity at 100 µM [1, 10] [%] | % CFU survival, C. albicans ([1]; 25 μM compound) | % CFU survival, S. epidermidis ([1]; 25 μM compound) | IC50 ([2]; S. aureus SH1000, 37°C, read-out: BIC50) [µM] | IC50 [2, 11] [µM] | IC50 [2, 12] [µM] | IC50 [3, 13] [µM] | IC50 ([4]; read-out: BIC50) [µM] | IC50 [4, 13] [µM] | IC50 ([5]; read-out: BIC50) [µM] | IC50 [5, 13] [µM] | IC50 [6, 14] [µM] | IC50 [6, 15] [µM] | IC50 ([3]; read-out: BIC50) [µM] | % CFU survival, S. epidermidis ([1]; 100 μM compound) | IC50 ([6]; MG44, read-out: BIC50) [µM] | IC50 ([6]; MG44, read-out: IC50 (planktonic growth)) [µM]
CCCCCCCCn1c(-c2ccc(Cl)c(Cl)c2)cnc1NCC(C)C [Compound 8d] | 2.5 | 1.4 | – | – | – | – | – | – | – | – | – | – | – | – | – | – | – | – | – | –
CCCCCCCCn1c(-c2ccc(Cl)c(Cl)c2)cnc1NC1CCCC1 [Compound 8h] | 6.7 | 3.5 | 2 | 2.2 | – | – | – | – | – | – | – | – | – | – | – | – | – | – | – | –
CCCCCCCCn1c(-c2ccc(Cl)cc2)cnc1NC1CCCC1 [Compound 8f] | 2.9 | 7.2 | 2.5 | 0.3 | – | – | – | – | – | – | – | – | – | – | – | – | – | – | – | –
CCCCCCCCn1c(-c2ccc(Cl)cc2)cnc1N [Compound 2] | < 0.6 | < 0.2 | 0 | 0 | completely inhibited | completely inhibited | 3.4 | 2 to 6 | 8.3 | ~11.1 | 145 | > 400 | 3.9 | 6 | 18.8 | 38 | – | – | – | –
CCCCCCCCn1c(-c2ccc(Br)cc2)cnc1NCC(C)C [Compound 8c] | 3.2 | 8.4 | 637 | 966 | – | – | – | – | – | – | – | – | – | – | – | – | – | – | – | –
Brc1ccc(-c2cnc(NCCn3cc(C4CC4)nn3)[nH]2)cc1 [Compound 6] | – | – | – | – | – | – | – | > 400 | > 400 | > 400 | > 400 | > 400 | 18.1 | 19.5 | 63.3 | > 400 | > 400 | – | – | –
Clc1ccc(-c2cnc(NC3CCCC3)[nH]2)cc1 [Compound 5] | 168 | 595 | 72 | 2.3 | – | – | – | 70.6 | 71.5 | 39.5 | 331 | > 400 | 5.7 | 4 | 8.8 | 125 | > 400 | complete inhibition | – | –
CCCCCCCCn1c(-c2ccc(Br)cc2)cnc1NC1CCCC1 [Compound 8g] | 3.3 | 5.9 | 0 | 0 | – | – | – | – | – | – | – | – | – | – | – | – | – | – | – | –
CCCCNc1ncc(-c2ccc(Br)cc2)[nH]1 [Compound 4] | – | – | – | – | – | – | – | 66.5 | 89.4 | 54.4 | 189 | > 400 | 3.7 | 8.2 | 4.4 | 118 | > 400 | – | – | –
CCCCCCCCn1c(-c2ccccc2)cnc1NC1CCCC1 [Compound 8e] | 10 | 2.5 | 93.1 | 0 | – | – | – | – | – | – | – | – | – | – | – | – | – | – | – | –
CC(C)CNc1ncc(-c2ccc(Cl)cc2)[nH]1 [Compound 3] | 58.3 | 235 | 64.6 | 13.2 | – | – | – | 200 | 175 | 86.2 | 88.1 | > 400 | 5.3 | 5.1 | – | – | > 400 | – | 10.4 | 154
CCCCCCCCn1c(-c2ccc(Cl)cc2)cnc1NCC(C)C [Compound 8b] | 2 | 18.2 | 6.1 | 0.7 | – | – | – | – | – | – | – | – | – | – | – | – | – | – | – | –
CCCCCn1c(-c2ccccc2)cnc1N [Compound 1] | – | – | – | – | – | – | – | 163 | > 400 | ~329 | ~356 | > 400 | 13.2 | 32.1 | 168 | 177 | ~202 | – | – | –
CCCCCCCCn1c(-c2ccccc2)cnc1NCC(C)C [Compound 8a] | 62.4 | 1 | – | 1 | – | – | – | – | – | – | – | – | – | – | – | – | – | – | – | –
